In patent US8501450B2, “Hepatitis C virus variants” (priority 2005, dated 2013):
“And” between values parts separate entries of the source, which are not always exact repeats. Equal values may be shown once.

Experiments:
[1] = biological target: HCV NS3 protease A156T mutant (UniProt P27958, A1182T, species not given); conditions: enzyme IC50 vs genotype 1a HCV-H reference strain
[2] = biological target: HCV NS3 protease T54A mutant (UniProt P27958, T1080A, species not given); conditions: enzyme IC50 vs genotype 1a HCV-H reference strain
[3] = test system: wild-type HCV replicon Con1-mADE cells; assay: microbe, parasite or virus in culture; conditions: Hepatitis C virus, 48 h, read-out: Replicon IC50
Excerpt: (§1) The stable wild-type (mADE) and variant HCV sub-genomic replicon cell lines were generated using the T7 RNA runoff transcripts from the corresponding high efficiency Con1 replicon plasmids.
(§2) The stable wild-type and variant HCV sub-genomic replicon cell lines were generated using the 17 RNA runoff transcripts from the corresponding high efficiency Con1 replicon plasmids.

[4] = test system: HCV replicon cells, NS3 R155T variant; conditions: for Fold change of replicon IC50: R155T IC50 divided by wild-type replicon IC50
Excerpt: as §1, §2

[5] = test system: wild-type HCV replicon Con1-mADE cells; conditions: for Fold change of replicon IC50: wild-type replicon relative to itself
Excerpt: as §1, §2

[6] = test system: HCV variant mixture in patient plasma; assay: Average phenotype for each patient; type: in vivo, patients; conditions: for Average Phenotype: individual subjects
Excerpt: The genotypic analyses performed here allowed a detailed examination of the relative proportion of different resistant mutants within each patient. To better understand the level of phenotypic resistance conferred by these viral mixtures, exploratory analyses were done to obtain an average phenotype for each patient. The percent of virions with a given single or double mutation was multiplied by the average fold change in enzyme IC50 for that given mutant (Table 3), and then all values were added for each patient. […] An analysis correlating pharmacokinetic data with resistance patterns is currently underway.

[7] = test system: HCV replicon cells, NS3 R155M variant
Excerpt: as §1, §2

[8] = test system: HCV replicon cells, NS3 R155K variant
Excerpt: as §1, §2

[9] = patients that continued to decline, follow-up
[10] = plateau group of patients, Day 14
[11] = rebound group of patients, Day 14
[12] = rebound group of patients, follow-up

## COc1ccc2c(O[C@@H]3C[C@H]4C(=O)N[C@]5(C(=O)O)C[C@H]5/C=C\CCCCC[C@H](NC(=O)OC5CCCC5)C(=O)N4C3)cc(-c3csc(NC(C)C)n3)nc2c1 [BILN 2061]
[1]
  Fold change: >183 fold
[2]
  Fold change: 2.3 fold

## NC(=O)c1ncn([C@@H]2O[C@H](CO)[C@@H](O)[C@H]2O)n1 [Ribavirin, 1-beta-D-ribofuranosyl-1H-1,2,4-triazole-3-carboxamide]
[3]
  IC50: 58 ± 18 µM
[4]
  Fold change of replicon IC50: 0.6 ± 0.3 fold
[5]
  Fold change of replicon IC50: 1.0 ± 0.3 fold

## CCC[C@H](NC(=O)[C@@H]1[C@H]2CCC[C@H]2CN1C(=O)[C@@H](NC(=O)[C@@H](NC(=O)c1cnccn1)C1CCCCC1)C(C)(C)C)C(=O)C(=O)NC1CC1 [VX-950]
[6]; 450 mg, FU (7-10 days after ETR)
  Average Phenotype: 28.94 and 3.13 and 8.65 and 1.14 and 0.83 and 29.43 and 14.81
[6]; 750 mg, ETR (Day 14)
  Average Phenotype: 466.14 and 466.00
[6]; 750 mg, FU (7-10 days after ETR)
  Average Phenotype: 9.33 and 45.74 and 126.48 and 9.65 and 3.17 and 4.92 and 0.00
[6]; 1250 mg, ETR (Day 14)
  Average Phenotype: 10.15 and 26.13 and 9.38 and 14.39 and 14.59 and 47.49 and 147.96 and 25.96 and 466.00
[6]; 1250 mg, FU (7-10 days after ETR)
  Average Phenotype: 9.39 and 26.03 and 10.65 and 12.33 and 15.28 and 15.38 and 7.93 and 1.87 and 30.97
[6]; [9]
  Average phenotype, mean value: 4
  Average phenotype, range: 0-10
[6]; [10]
  Average phenotype, mean value: 272
  Average phenotype, range: 26-466
[6]; plateau group of patients, follow-up
  Average phenotype, mean value: 32
[6]; [11]
  Average phenotype, mean value: 27
  Average phenotype, range: 6-70
[6]; [12]
  Average phenotype, mean value: 15
  Average phenotype, range: 3-29
[3]
  IC50: 0.485 ± 0.108 µM

## IFN-α
[7]; R155M IC50 divided by wild-type replicon IC50
  Fold change of replicon IC50: 0.4 ± 0.1 fold
[7]; R155M replicon, 48-h assay, mean ± SD of three experiments
  Replicon IC50: 4.9 ± 1.0 U/ml
[8]; R155K IC50 divided by wild-type replicon IC50
  Fold change of replicon IC50: 1.3 ± 1.1 fold
[8]; R155K replicon, 48-h assay, mean ± SD of three experiments
  Replicon IC50: 15.2 ± 12.3 U/ml
[4]
  Fold change of replicon IC50: 0.4 ± 0.3 fold
[4]; R155T replicon, 48-h assay, mean ± SD of three experiments
  Replicon IC50: 4.8 ± 3.3 U/ml
[5]
  Fold change of replicon IC50: 1.0 ± 0.1 fold
[5]; wild-type replicon, 48-h assay, mean ± SD of three experiments
  Replicon IC50: 11.6 ± 1.1 U/ml
